Literature values in patent US9132083B2, “Delivery system comprising a silicon-containing material” (SISAF Ltd., priority 2009, dated 2015).

Compound: [Na+].[O-][Si](O)(O)O [Na^+(OSA)^− salt]
- pKa: about 6
